Laboratory results reported in ChEMBL document CHEMBL1125514, “Quantitative structure-activity relationships of N2-phenylguanines as inhibitors of herpes simplex virus thymidine kinases” (J Med Chem, 1992).

Columns and labels:
[1] = target: T1, Thymidine kinase (Human herpesvirus 1 (strain SC16) (HHV-1) (Human herpes simplex virus1), UniProt P06479); test: Inhibitory activity against HSV-1 thymidine kinase isolated from HeLa cells; assay type: cell-free; conditions: for IC50: read-out: Log 1/IC50 (converted)
T1 sequence (P06479 whole entry): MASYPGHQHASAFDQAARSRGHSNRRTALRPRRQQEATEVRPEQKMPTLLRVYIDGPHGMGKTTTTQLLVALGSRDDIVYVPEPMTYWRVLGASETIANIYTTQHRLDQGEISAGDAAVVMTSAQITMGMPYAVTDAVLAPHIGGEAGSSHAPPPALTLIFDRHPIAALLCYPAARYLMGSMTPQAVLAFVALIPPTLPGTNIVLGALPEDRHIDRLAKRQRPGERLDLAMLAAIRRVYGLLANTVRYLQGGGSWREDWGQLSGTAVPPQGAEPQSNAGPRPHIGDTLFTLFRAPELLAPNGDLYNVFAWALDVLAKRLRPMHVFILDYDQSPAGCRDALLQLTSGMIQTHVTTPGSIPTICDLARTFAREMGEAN

[2] = target: T2, Thymidine kinase (Human herpesvirus 2, UniProt Q6L709); test: Inhibitory activity against HSV-2 thymidine kinase isolated from HeLa cells; assay type: cell-free; conditions: read-out: Log 1/IC50 (converted)
T2 sequence (Q6L709 whole entry): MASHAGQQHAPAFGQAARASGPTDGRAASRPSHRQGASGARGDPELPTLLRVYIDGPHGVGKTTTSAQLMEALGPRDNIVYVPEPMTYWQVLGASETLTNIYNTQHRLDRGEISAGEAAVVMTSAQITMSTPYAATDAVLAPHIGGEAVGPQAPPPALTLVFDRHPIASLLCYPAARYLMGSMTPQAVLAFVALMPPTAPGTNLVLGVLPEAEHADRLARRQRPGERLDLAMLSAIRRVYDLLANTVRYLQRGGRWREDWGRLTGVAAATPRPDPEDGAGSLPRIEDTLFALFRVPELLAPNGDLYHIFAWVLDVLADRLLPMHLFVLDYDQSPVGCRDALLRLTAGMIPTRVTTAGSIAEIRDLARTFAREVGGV

In the case of `Oc1[nH]c(Nc2cccc(CCl)c2)nc2ncnc1-2`, the IC50 [1] was 1.41 µM and the IC50 [2] was 1.35 µM.

`Oc1[nH]c(Nc2ccc(Cl)cc2)nc2ncnc1-2` showed an IC50 [1] of 100 µM and an IC50 [2] of 50.1 µM.

Work on `CCCc1ccc(Nc2nc(O)c3[nH]cnc3n2)cc1` yielded an IC50 [1] of 30.2 µM and an IC50 [2] of 46.8 µM.

With `NCc1cccc(Nc2nc(O)c3[nH]cnc3n2)c1` the IC50 [1] was 30.2 µM and the IC50 [2] was 20 µM.

Molecule `[N-]=[N+]=NCc1cccc(Nc2nc3ncnc-3c(O)[nH]2)c1` has an IC50 [1] of 0.794 µM and an IC50 [2] of 1.51 µM.

For `Oc1[nH]c(Nc2cccc(CBr)c2)nc2ncnc1-2`, the IC50 [1] was 1 µM and the IC50 [2] was 1.2 µM.

With `Oc1[nH]c(Nc2cccc(I)c2)nc2ncnc1-2` the IC50 [1] was 1.1 µM and the IC50 [2] was 1.1 µM.

`CC(C)c1ccc(Nc2nc(O)c3[nH]cnc3n2)cc1` showed an IC50 [1] of 200 µM and an IC50 [2] of 100 µM.

With `CCCCc1ccc(Nc2nc(O)c3[nH]cnc3n2)cc1` the “Log 1/IC50” value ([1]; hela) was 4.3 and the IC50 [2] was 50.1 µM.

Work on `O=c1nc(Nc2cccc(CO)c2)[nH]c2nc[nH]c12` yielded an IC50 [1] of 25.1 µM and an IC50 [2] of 20 µM.

`Oc1[nH]c(Nc2ccc(F)c(Cl)c2)nc2ncnc1-2` showed an IC50 [1] of 7.94 µM and an IC50 [2] of 2.51 µM.

In the case of `Oc1[nH]c(Nc2ccc(F)cc2)nc2ncnc1-2`, the IC50 [1] was 302 µM and the IC50 [2] was 257 µM.

`O=c1[nH]c(Nc2ccc(F)c(F)c2)nc2nc[nH]c12` showed an IC50 [1] of 50.1 µM and an IC50 [2] of 2.19 µM.

`Oc1[nH]c(Nc2ccc(Cl)c(C(F)(F)F)c2)nc2ncnc1-2` was tested, and the IC50 [1] was 20 µM and the IC50 [2] was 5.01 µM.

`CCCCc1ccc(Nc2nc(O)c3[nH]cnc3n2)cc1C` showed an IC50 [1] of 39.8 µM.

In the case of `CCCCCc1ccc(Nc2nc(O)c3[nH]cnc3n2)cc1`, the IC50 [1] was 501 µM and the IC50 [2] was 251 µM.

With `CCc1cccc(Nc2nc3nc[nH]c3c(=O)[nH]2)c1` the IC50 [1] was 2.51 µM and the IC50 [2] was 3.98 µM.

In the case of `Cc1ccc(Nc2nc3nc[nH]c3c(=O)[nH]2)cc1`, the IC50 [1] was 50.1 µM and the IC50 [2] was 6.03 µM.

For `O=c1[nH]c(Nc2cccc(C(F)(F)F)c2)nc2nc[nH]c12`, the IC50 [1] was 0.151 µM and the IC50 [2] was 0.1 µM.

With `N#Cc1cccc(Nc2nc3ncnc-3c(O)[nH]2)c1` the IC50 [1] was 5.01 µM and the IC50 [2] was 0.398 µM.

`Oc1[nH]c(Nc2cccc(Br)c2)nc2ncnc1-2` was tested, and the IC50 [1] was 1.51 µM and the IC50 [2] was 0.603 µM.

With `Oc1[nH]c(Nc2ccc(I)cc2)nc2ncnc1-2` the IC50 [1] was 39.8 µM and the IC50 [2] was 8.91 µM.

In the case of `Oc1[nH]c(Nc2cccc(Cl)c2)nc2ncnc1-2`, the IC50 [1] was 1.51 µM and the IC50 [2] was 0.347 µM.

`Oc1[nH]c(Nc2ccc(Br)cc2)nc2ncnc1-2` was tested, and the IC50 [1] was 1 µM and the IC50 [2] was 0.603 µM.

`O=c1[nH]c(Nc2ccc(O)cc2)nc2nc[nH]c12` showed an IC50 [1] of 141 µM and an IC50 [2] of 20 µM.

In the case of `Oc1[nH]c(Nc2ccc3ccccc3c2)nc2ncnc1-2`, the IC50 [1] was 39.8 µM and the IC50 [2] was 10 µM.

For `Oc1[nH]c(Nc2ccc(C(F)(F)F)cc2)nc2ncnc1-2`, the IC50 [1] was 30.2 µM and the IC50 [2] was 39.8 µM.

Work on `Oc1[nH]c(Nc2ccc(Br)c(Br)c2)nc2ncnc1-2` yielded an IC50 [1] of 3.02 µM and an IC50 [2] of 1.29 µM.

In the case of `Cc1ccc(Nc2nc(O)c3[nH]cnc3n2)cc1CO`, the IC50 [1] was 269 µM and the IC50 [2] was 200 µM.
